Measurements published in patent publication US10184137B2, “Method of producing isoprene monomer” (AJINOMOTO CO., INC., priority 2014, dated 2019).
Several values for one entry are separate records, joined by “and”; a condition that tells them apart may be missing. Identical values can stand only once. Counter-ions that a name gives are not always drawn. Each block holds one molecule with its values, some of them ahead of it.

Legend:
[1] = molecular target: T1, Methanosaeta concilii mevalonate kinase (mcl), wild type, SEQ ID NO:6, N-terminal His-tag (Methanothrix soehngenii, UniProt F4BZB3); assay: biochemical
T1 sequence (F4BZB3 1-317): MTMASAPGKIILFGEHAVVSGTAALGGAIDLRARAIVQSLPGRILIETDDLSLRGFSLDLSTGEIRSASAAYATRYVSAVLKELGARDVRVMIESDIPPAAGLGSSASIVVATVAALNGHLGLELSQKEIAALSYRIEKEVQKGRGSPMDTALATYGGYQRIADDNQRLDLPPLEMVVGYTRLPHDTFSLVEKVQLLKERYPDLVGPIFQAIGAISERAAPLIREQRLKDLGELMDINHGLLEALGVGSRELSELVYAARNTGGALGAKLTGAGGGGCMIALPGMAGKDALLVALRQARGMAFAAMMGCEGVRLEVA

[2] = molecular target: T1, Methanosaeta concilii mevalonate kinase (mcl), wild type, SEQ ID NO:6, N-terminal His-tag; assay: Inhibition of mcl-derived mevalonate kinase by DMAPP, GPP, FPP or DPM; assay type: biochemical
Method: (§1) Km value was calculated by Lineweaver-Burk plot.
(§2) Since GPP and FPP solutions contain methanol, methanol which was needed to keep the same methanol level at the addition to the reaction system was added to the reaction solution, which was designated as control.
(§3) Effect of 1 mM diphosphomevalonate (DPM) on each enzyme was also studied.

[3] = molecular target: Corynebacterium variabile mevalonate kinase (cva), wild type, SEQ ID NO:3, N-terminal His-tag (Corynebacterium variabile, UniProt A0A0X2NLH5); assay: Inhibition of cva-derived mevalonate kinase by DMAPP, GPP, FPP or DPM; assay type: biochemical
Method: as §1, §2, §3

[4] = molecular target: Nitrosopumilus maritimus mevalonate kinase (nmr), wild type, SEQ ID NO:9, N-terminal His-tag (Nitrosopumilus maritimus, UniProt A9A427); assay: Inhibition of nmr-derived mevalonate kinase by DMAPP, GPP, FPP or DPM; assay type: biochemical
Method: as §1, §2, §3

[5] = molecular target: Methanocella paludicola mevalonate kinase (mpd), wild type, SEQ ID NO:1, N-terminal His-tag (Methanocella paludicola, UniProt D1YZ39); assay: Inhibition of mpd-derived mevalonate kinase by DMAPP, GPP, FPP or DPM; assay type: biochemical
Method: as §1, §2, §3

[6] = molecular target: T2, Methanosarcina mazei mevalonate kinase (mma), wild type, SEQ ID NO:12, N-terminal His-tag (Methanosarcina mazei, UniProt Q8PW39); assay: Inhibition of mma-derived mevalonate kinase by DMAPP, GPP, FPP or DPM; assay type: biochemical
T2 sequence (Q8PW39 1-301): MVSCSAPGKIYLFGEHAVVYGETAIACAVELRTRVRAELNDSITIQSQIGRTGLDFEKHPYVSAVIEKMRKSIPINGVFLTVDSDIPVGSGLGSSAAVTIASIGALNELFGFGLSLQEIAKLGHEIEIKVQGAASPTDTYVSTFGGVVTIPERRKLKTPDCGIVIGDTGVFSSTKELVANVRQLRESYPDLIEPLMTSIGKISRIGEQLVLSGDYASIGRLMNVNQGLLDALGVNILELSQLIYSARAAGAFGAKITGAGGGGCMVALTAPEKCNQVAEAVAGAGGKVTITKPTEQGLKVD
Method: as §1, §2, §3

mevalonate kinase [7] = assay: Inhibition of each mevalonate kinase by DMAPP, GPP, FPP or DPM; assay type: biochemical
Method: as §2
Respective effect of the added 5 mM DMAPP, 0.1 mM GPP, and 0.1 mM FPP on the activity of each enzyme was measured. […] Contrarily, mcl-derived enzyme was activated by 5 mM DMAPP and its activity increased by 20% from that of the control.
Activity when 10 μl of each enzyme was added to 1 ml of the reaction system was represented by dABS/min
as §3

mevalonate kinase [8] = assay: Expression analysis and activity confirmation of His-tagged mevalonate kinases from pET-21a(+) and pET-28b(+); assay type: biochemical; settings: His-spinTrap eluate after dialysis, 10 μl enzyme solution
Method: Each obtained plasmid was used for transformation of E. coli BL21(DE3). […] When OD600 reached approximately 0.5, IPTG was added to the solution to final concentration of 1 mM. It was then cultured overnight at 20° C. Harvested cells were suspended in the buffer solution consisting of 50 mM sodium phosphate, 0.3 M NaCl and 20 mM Imidazol. Then the cells were disrupted with an ultrasonic disruptor (TOMY: UD-201, output level=3.5). After centrifugation (20,000×g, 20 min), disrupted cells were adsorbed to His-spinTrap (GE Healthcare). After washing with the same buffer solution, protein was eluted with the buffer solution consisting of 50 mM sodium phosphate, 0.3 M NaCl and 0.5 M imidazole (pH7.5). Eluate was dialyzed overnight at 4° C. with the external solution composed of 20 mM Tris-HCl (pH7.5) and 50 mM NaCl. Then, enzyme activity of each eluate in the internal dialysis solution was measured.
Activity of the internal dialysate (about 0.2 ml each) was measured with the 10 μl of enzyme solution (Table 8). Enzyme expression level was compared on activity basis between pET-21a(+) and pET-28b(+). […] It is inferred that expression level is higher in pET-28b(+). Therefore, purified enzyme expressed in pET-28b(+) was used in the further examinations.
Values were presented by decrease in absorbance per unit time per 10 μl in the enzyme reaction measurement system (dABS/min/10 μl).
(§4) Decrease in absorbance at 340 nm at 30° C. was measured to determine the enzyme activity. JASCO Corporation's spectrophotometer (V-650) was used in this study. Millimolar extinction coefficient of NADH used in this study was 6.22 mM^−1 cm^−1. […] Km value was calculated by Lineweaver-Burk plot.

mevalonate kinase [9] = assay: Examination of product inhibition on each mevalonate kinase (absorbance at 386 nm, PMK addition); assay type: biochemical; settings: in words
Method: When decrease in absorbance stopped, purified PMK was added to measure further decrease in absorbance at 386 nm.
FIG. 18 presents the SDS-PAGE profile of the purified PMK. […] Then, absorbance decreased further and finally absorbance at 386 nm decreased to 0.3 in all reaction systems. Therefore, it is inferred that mevalonate is converted into diphosphomevalonate via phosphomevalonate by adding PMK to each MVK.

mevalonate kinase [10] = assay: Measurement of activity and Km value of purified mevalonate kinase (PK/LDH coupled, 340 nm); assay type: biochemical; settings: 10 μl enzyme in 1 ml, replicate values
Method: Each obtained plasmid was used for transformation of E. coli BL21(DE3). […] When OD600 reached approximately 0.5, 0.1 mM IPTG (for cva, mma, nmr, and sce) or 1 mM (for mcl and mpd) of IPTG was added, and then the mixture was kept at 20° C. overnight to induce the target protein. Harvested cells were suspended in buffer solution A (50 mM sodium phosphate, 0.3 M NaCl and 20 mM Imidazol), and then the cells were disrupted with an ultrasonic disruptor (TOMY: UD-201). […] After centrifugation (28,000×g, 30 min), the supernatant was adsorbed onto His-Trap HP (GE Healthcare) to elute the target protein by linear concentration gradient of Imidazol (final concentration 0.5 M). Obtained protein was dialyzed by using an external solution composed of 20 mM Tris-HCl (pH 8.0) containing 1 mM DTT and 50 mM NaCl. Dialyzed protein was designated as purified enzyme. Protein quantity was measured with Bio-RAD protein assay kit and BSA standard condition.
as §4
Measured activity of each enzyme (JABS/min) was presented on Table 9 for the calculation of apparent Km value (Km app.) of each enzyme. Table 10 presents Km app., Vmax, molecular weight of the enzyme protein, protein concentration in the enzyme solution and calculated kcat.
Activity was indicated by dABS/min when 10 μl of each enzyme was added to 1 ml of reaction solution.

[11] = substrate: Nc1ncnc2c1ncn2[C@@H]1O[C@H](COP(=O)(O)OP(=O)(O)OP(=O)(O)O)[C@@H](O)[C@H]1O; assay: purified protein, by the assay type; settings: other: mpd, 5 mM potassium mevalonate, pH 7.6, 30° C., Lineweaver-Burk plot
Method: Each obtained plasmid was used for transformation of E. coli BL21(DE3). […] When OD600 reached approximately 0.5, 0.1 mM IPTG (for cva, mma, nmr, and sce) or 1 mM (for mcl and mpd) of IPTG was added, and then the mixture was kept at 20° C. overnight to induce the target protein. […] After centrifugation (28,000×g, 30 min), the supernatant was adsorbed onto His-Trap HP (GE Healthcare) to elute the target protein by linear concentration gradient of Imidazol (final concentration 0.5 M). Obtained protein was dialyzed by using an external solution composed of 20 mM Tris-HCl (pH 8.0) containing 1 mM DTT and 50 mM NaCl. Dialyzed protein was designated as purified enzyme. Protein quantity was measured with Bio-RAD protein assay kit and BSA standard condition.
Decrease in absorbance at 340 nm at 30° C. was measured to determine the enzyme activity. JASCO Corporation's spectrophotometer (V-650) was used in this study. […] Km value was calculated by Lineweaver-Burk plot.

Sequence of Corynebacterium variabile mevalonate kinase (cva), wild type, SEQ ID NO:3, N-terminal His-tag (A0A0X2NLH5 entry or part of it): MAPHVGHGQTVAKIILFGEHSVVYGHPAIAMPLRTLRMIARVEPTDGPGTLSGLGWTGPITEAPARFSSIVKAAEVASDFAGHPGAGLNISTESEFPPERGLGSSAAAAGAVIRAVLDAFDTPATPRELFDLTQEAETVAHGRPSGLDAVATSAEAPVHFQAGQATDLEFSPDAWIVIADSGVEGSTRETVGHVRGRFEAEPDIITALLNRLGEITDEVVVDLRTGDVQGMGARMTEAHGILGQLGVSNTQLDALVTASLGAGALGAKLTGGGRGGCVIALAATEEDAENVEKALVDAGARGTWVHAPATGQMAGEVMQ

Molecule: C=C(C)CCOP(=O)(O)OP(=O)(O)O.N.N.N [IPP, Isopentenyl pyrophosphate tri-ammonium salt]
Enzyme activity with 33.6 μM IPP ([1]; mcl, 33.6 μM IPP, control (MeOH) 0.15939): 0.158 dABS/min
Enzyme activity with 168 μM IPP ([1]; mcl, 168 μM IPP, control (MeOH) 0.15939): 0.1606 dABS/min

Molecule: CC(C)=CCOP(=O)(O)OP(=O)(O)O.N.N.N [DMAPP, Dimethylallyl diphosphate ammonium salt]
Enzyme activity with 5 mM DMAPP ([2]; mcl, 5 mM DMAPP, control 0.1482): 0.1806 dABS/min
activation at 5000 µM ([2]; read-out: Increase of activity from that of the control): 20%
Enzyme activity with 33.6 μM DMAPP ([1]; mcl, 33.6 μM DMAPP, control (H2O) 0.15403): 0.1527 dABS/min
Enzyme activity with 168 μM DMAPP ([1]; mcl, 168 μM DMAPP, control (H2O) 0.15403): 0.1552 dABS/min
activation at 5000 µM ([1]; read-out: Increase of relative activity): 20%
Enzyme activity with 5 mM DMAPP ([3]; 5 mM DMAPP, control 0.08338): 0.0786 dABS/min
Enzyme activity with 5 mM DMAPP ([4]; 5 mM DMAPP, control 0.2438): 0.231 dABS/min
Enzyme activity with 5 mM DMAPP ([5]; 5 mM DMAPP, control 0.15734): 0.1528 dABS/min
Enzyme activity with 5 mM DMAPP ([6]; 5 mM DMAPP, control 0.21): 0.1904 dABS/min

B2: Methanocella paludicola mevalonate kinase (mpd), wild type, SEQ ID NO:1, N-terminal His-tag (Methanocella paludicola SANAE) (protein)
chain: MTMCSAPGKVFLFGEHAVVYGKRAIACAIDLRTTVEVSRKSRGVHIHSAFKDEPDKNLYIKTAVKRMQKCADIRNVNIAVSSRIPVASGLGSSAAVTVATIGALNEEFSAGLSKKDIAYMAYQTELEVQGAASPTDTFVSTMGGTVVVPDMRTLPPITCGIVVGHTGISKSTSRMVSRVRTLKEKYPDVIDGIMDSIGDISARGEDLIKQNDYRSIGELMNVNQGLLDALGITIPELSLQIYAARQHGAYGAKITGAGGGGCMVAICDDKNCKEIATAIGRSYGDSFISKPTAEGIFIQ
Km [11]: 119 ± 2.1 µM

The next lines start with results.

Inhibition by FPP ([2]; mcl, 0.1 mM FPP): no other enzymes were inhibited strongly
Enzyme activity with 0.1 mM FPP ([2]; mcl, 0.1 mM FPP, control 0.1482): 0.1562 dABS/min
Inhibition by FPP ([3]; 0.1 mM FPP): inhibited
Enzyme activity with 0.1 mM FPP ([3]; 0.1 mM FPP, control 0.08338): 0.04775 dABS/min
Inhibition by FPP ([4]; 0.1 mM FPP): no other enzymes were inhibited strongly
Enzyme activity with 0.1 mM FPP ([4]; 0.1 mM FPP, control 0.2438): 0.224 dABS/min
Inhibition by FPP ([5]; 0.1 mM FPP): no other enzymes were inhibited strongly
Enzyme activity with 0.1 mM FPP ([5]; 0.1 mM FPP, control 0.15734): 0.1594 dABS/min
Inhibition by FPP ([6]; 0.1 mM FPP): no other enzymes were inhibited strongly
Enzyme activity with 0.1 mM FPP ([6]; 0.1 mM FPP, control 0.21): 0.2059 dABS/min
Molecule: CC(C)=CCC/C(C)=C/CC/C(C)=C/COP(=O)(O)OP(=O)(O)O [FPP, farnesyl pyrophosphate ammonium salt]

Enzyme activity with 0.1 mM GPP ([2]; mcl, 0.1 mM GPP, control 0.1482): 0.1538 dABS/min
Enzyme activity with 0.1 mM GPP ([3]; 0.1 mM GPP, control 0.08338): 0.07532 dABS/min
Enzyme activity with 0.1 mM GPP ([4]; 0.1 mM GPP, control 0.2438): 0.2427 dABS/min
Enzyme activity with 0.1 mM GPP ([5]; 0.1 mM GPP, control 0.15734): 0.1589 dABS/min
Enzyme activity with 0.1 mM GPP ([6]; 0.1 mM GPP, control 0.21): 0.2009 dABS/min
Molecule: CC(C)=CCC/C(C)=C/COP(=O)(O)OP(=O)(O)O [GPP, geranyl phyrophosphate ammonium salt]

DPM-induced inhibition (mevalonate kinase [9]): not observed
B1: nmr: mevalonate kinase derived from Nitrosopumilus maritimus (SEQ ID NO:9), His-tagged purified enzyme (protein, listed as Nitrosopumilus maritimus)
chain: MKSKASAPGKVILFGEHFVVYGVKAILCAINKRIAVTAEKIDERKISIKSNIGHLELEPNKPISEINSPLKPFYYLANKIIQDKNFGIKIDVESEIPLGVGLGSSSACCVAGAAAISNLFENNSKEEILKLAIEAEKTIFQNTSGADCTVCTFGGLMEYDKENGFSKIESEPNFHLVIANSNVEHSTESVVAGVRKFKKNNEAEFSKLCKDESHLIENVLELLKENNIRELGERVIKNQEYLERIGISNAKLREMIQTGQNSSFGAKITGAGGGGCIFALTDESNLENTIKEFKEKNHECFSVKIDFKGLDTF
modifications: His-tag
enzyme activity, Control (mevalonate kinase [7]; Table 11 control without terpenyl diphosphate (methanol added)): 0.2438 dABS/min
enzyme activity, Control (mevalonate kinase [7]; Table 12 control without DPM): 0.2064 dABS/min
enzyme activity, pET21 system (C terminal Tag) (mevalonate kinase [8]): 0.137 dABS/min/10 μl
enzyme activity, pET28 system (N terminal Tag) (mevalonate kinase [8]): 0.247 dABS/min/10 μl
course of decrease in absorbance at 386 nm until PMK addition (mevalonate kinase [9]; 1 mM mevalonate as substrate): decrease in the rate of reaction associated with the progression of reaction
dABS/min at ATP 0.04 mM (mevalonate kinase [10]; ATP 0.04 mM, potassium mevalonate 5 mM): 0.007781 dABS/min and 0.00767 dABS/min and 0.007932 dABS/min
dABS/min at ATP 0.2 mM (mevalonate kinase [10]; ATP 0.2 mM, potassium mevalonate 5 mM): 0.03637 dABS/min and 0.03629 dABS/min and 0.03625 dABS/min
dABS/min at ATP 1 mM (mevalonate kinase [10]; ATP 1 mM, potassium mevalonate 5 mM): 0.1089 dABS/min and 0.1084 dABS/min and 0.1085 dABS/min
dABS/min at mev 0.04 mM (mevalonate kinase [10]; potassium mevalonate 0.04 mM, ATP 5 mM): 0.01691 dABS/min and 0.01687 dABS/min and 0.0168 dABS/min
dABS/min at mev 0.2 mM (mevalonate kinase [10]; potassium mevalonate 0.2 mM, ATP 5 mM): 0.06788 dABS/min and 0.06784 dABS/min and 0.06777 dABS/min
dABS/min at mev 1 mM (mevalonate kinase [10]; potassium mevalonate 1 mM, ATP 5 mM): 0.1521 dABS/min and 0.1522 dABS/min and 0.153 dABS/min
